ChEMBL document CHEMBL3272209, “Anthelmintic 1-cinnamamido-2,4-imidazolidinediones” (1976)
The source made the active and inactive calls. The calls are words filed in the database; no cut-off is given here.

What was measured:
Format in all cases: functional
[1] = system: Syphacia obvelata; assay: Anthelmintic activity against Syphacia obvelata infected in mouse assessed as reduction in worm burden at 100 mg/kg, po bid for 5 days; conditions: 120 h
[2] = system: Syphacia obvelata; assay: Anthelmintic activity against Syphacia obvelata infected in mouse assessed as reduction in worm burden at 50 mg/kg, po bid for 5 days; conditions: for inhibition in vivo at 50 mg/kg: 120 h
[3] = system: Syphacia obvelata; assay: Anthelmintic activity against Syphacia obvelata infected in mouse assessed as reduction in worm burden at 300 mg/kg, po bid for 5 days; conditions: 120 h
[4] = system: Syphacia obvelata; assay: Anthelmintic activity against Syphacia obvelata infected in mouse assessed as reduction in worm burden at 25 mg/kg, po bid for 5 days; conditions: for inhibition in vivo at 25 mg/kg: 120 h
[5] = system: Syphacia obvelata; assay: Anthelmintic activity against Syphacia obvelata infected in mouse assessed as reduction in worm burden at 10 mg/kg, po bid for 5 days

SMILES	inhibition in vivo at 100 mg/kg [1] [%]	inhibition in vivo at 50 mg/kg [2] [%]	inhibition in vivo at 300 mg/kg [3] [%]	inhibition in vivo at 25 mg/kg [4] [%]	inhibition in vivo at 10 mg/kg ([5]; 120 h) [%]	inhibition [2]	inhibition [5]	inhibition [4]
Cc1ccc(/C=C/C(=O)NN2CC(=O)NC2=O)cc1Cl	97	100	99	87	34	–	–	–
CCc1ccc(/C=C/C(=O)NN2CC(=O)NC2=O)cc1Cl	87	–	100	–	–	inactive	–	–
N#Cc1ccc(/C=C/C(=O)NN2CC(=O)NC2=O)cc1	100	100	100	97	–	–	inactive	–
O=C(/C=C/c1ccc(Cl)cc1)NN1CC(=O)NC1=O	97	52	100	–	–	–	–	inactive
O=C(/C=C/c1ccccc1)NN1CC(=O)NC1=O	75	–	86	–	–	inactive	–	–
O=C(/C=C/c1cccc(F)c1)NN1CC(=O)NC1=O	77	–	100	–	–	inactive	–	–
O=C(/C=C/c1ccc2c(c1)OCO2)NN1CC(=O)NC1=O	88	–	100	–	–	inactive	–	–
O=C(/C=C/c1ccc(Cl)c(C(F)(F)F)c1)NN1CC(=O)NC1=O	76	–	70	–	–	inactive	–	–
Cc1cc(/C=C/C(=O)NN2CC(=O)NC2=O)ccc1Br	81	–	100	–	–	inactive	–	–
O=C(/C=C/c1ccc(F)cc1)NN1CC(=O)NC1=O	69	67	100	–	–	–	–	inactive
O=C(/C=C/c1ccc(F)c(Cl)c1)NN1CC(=O)NC1=O	100	87	100	–	–	–	–	inactive
C1CNCCN1.O=C(O)CCCCC(=O)O	42	–	96	–	–	inactive	–	–
O=C(/C=C/c1ccc(Cl)c(Cl)c1)NN1CC(=O)NC1=O	100	100	100	51	–	–	inactive	–
